Laboratory results from US20080096894A1, “Anti-Bacterial Compounds” (ASTON UNIVERSITY, priority 2005, published 2008).
Read-outs that look alike come from different tables or passages of the source.

Tests used:
Assay in all cases: MIC, agar dilution, multipoint inoculator
[1] = test system: MRSA; format: cell-based, methicillin-resistant Staphylococcus aureus
Method: (§1) This activity was measured using a multipoint inoculator method as follows. The MIC for each compound was measured using an agar dilution method (Onda, H., et al., Int. J. Antimicrob. Agents. 18, 263 (2001)) (Mueller Hinton agar) by means of a multipoint inoculator delivering 10^4 colony forming units per spot.
‘Staph’ refers to the reference strain of S. aureus (NCTC 6571). A tick in the MRSA column refers to a positive zone against MRSA strain 96-7474, and the MIC range (in μg/ml) which follows is that found against a panel of ten MRSA strains. Where MIC values are given for MRSA, these are stated as a range of values, as testing was carried out on a panel of clinical isolates.

[2] = test system: K. pneumoniae; format: cell-based, Klebsiella pneumoniae; conditions: K. pneumoniae 327; upper value of MIC reading
Method: as §1

[3] = test system: S. epidemisis; format: cell-based, Staphylococcus epidermidis; conditions: upper value of MIC reading
Method: as §1

[4] = test system: S. aureus; format: cell-based, Staphylococcus aureus; conditions: upper value of MIC reading
Method: as §1

[5] = test system: S. marcesens; format: cell-based, Serratia marcescens; conditions: S. marcesens 4444, upper value of MIC reading
Method: as §1

[6] = test system: P. auriginosa; format: cell-based, Pseudomonas aeruginosa; conditions: P. auriginosa NCTC 6749, upper value of MIC reading
Method: as §1

[7] = test system: S. maltophilia; format: cell-based; conditions: S. maltophilia NCTC 10257, upper value of MIC reading
Method: as §1

[8] = test system: S. haemolyticus; format: cell-based; conditions: S. haemolyticus Isolate 1, upper value of MIC reading
Method: as §1

[9] = test system: E. faecalis; format: cell-based; conditions: upper value of MIC reading
Method: as §1

[10] = test system: E. faecium; format: cell-based, Enterococcus faecium; conditions: upper value of MIC reading
Method: as §1

[11] = test system: B. bronchiseptica; format: cell-based; conditions: B. bronchiseptica NCTC 8344; upper value of MIC reading
Method: as §1

[12] = test system: E. coli; format: cell-based, Escherichia coli; conditions: Escherichia coli, 18 h, upper value of MIC reading
Method: as §1

[13] = test system: S. aboni; format: cell-based; conditions: S. aboni NCTC 6017; upper value of MIC reading
Method: as §1

[14] = MRSA Isolate 1, upper value of MIC reading, in µg/mL
[15] = MRSA Isolate 2, upper value of MIC reading, in µg/mL
[16] = MRSA Isolate 3, upper value of MIC reading, in µg/mL
[17] = MRSA Isolate 4, upper value of MIC reading, in µg/mL
[18] = MRSA Isolate 5, upper value of MIC reading, in µg/mL
[19] = MRSA Isolate 10, upper value of MIC reading, in µg/mL
[20] = panel of ten MRSA strains (clinical isolates)
[21] = Staphylococcus aureus, 18 h, MRSA Isolate 1, upper value of MIC reading, read-out: MIC
[22] = Staphylococcus aureus, 18 h, MRSA Isolate 2, upper value of MIC reading, read-out: MIC
[23] = Staphylococcus aureus, 18 h, MRSA Isolate 3, upper value of MIC reading, read-out: MIC
[24] = Staphylococcus aureus, 18 h, MRSA Isolate 4, upper value of MIC reading, read-out: MIC
[25] = Staphylococcus aureus, 18 h, MRSA Isolate 5, upper value of MIC reading, read-out: MIC
[26] = Staphylococcus aureus, 18 h, MRSA Isolate 6, upper value of MIC reading, read-out: MIC
[27] = Staphylococcus aureus, 18 h, MRSA Isolate 7, upper value of MIC reading, read-out: MIC
[28] = Staphylococcus aureus, 18 h, MRSA Isolate 8, upper value of MIC reading, read-out: MIC
[29] = Staphylococcus aureus, 18 h, MRSA Isolate 9, upper value of MIC reading, read-out: MIC
[30] = Staphylococcus aureus, 18 h, MRSA Isolate 10, upper value of MIC reading, read-out: MIC
[31] = Staphylococcus aureus, MRSA, 18 h, panel of ten MRSA strains (clinical isolates), read-out: MRSA MIC range
[32] = Staphylococcus epidermidis, 18 h, S. epidemisis Isolate 1, read-out: MIC
[33] = Staphylococcus epidermidis, NCTC11047, 18 h, S. epidemisis NCTC 11047, read-out: MIC
[34] = Enterococcus faecium, NCTC7171, 18 h, E. faecium NCTC 7171, read-out: MIC
[35] = Staphylococcus aureus, 18 h, S. aureus Cowan 1, read-out: MIC
[36] = Staphylococcus aureus, NCTC6571, 18 h, S. aureus NCTC 6571, read-out: MIC
[37] = Staphylococcus aureus, NCTC10788, 18 h, S. aureus NCTC 10788, read-out: MIC
[38] = Staphylococcus haemolyticus, 18 h, read-out: MIC
[39] = Enterococcus faecalis, 18 h, E. faecalis Isolate 1, read-out: MIC
[40] = Enterococcus faecalis, 18 h, E. faecalis Isolate 2, read-out: MIC
[41] = Enterococcus faecalis, 18 h, E. faecalis Isolate 4, read-out: MIC
[42] = Enterococcus faecalis, 18 h, E. faecalis Isolate 5, read-out: MIC

CCOc1ccccc1C=NN=C(N)c1cccnc1 [Compound 3PYay]
256 µg/mL: MIC [2] | MIC [5] | MIC [7] | MIC [8]
> 256 µg/mL: MRSA MIC range [1, 20] | MIC ([4]; S. aureus NCTC 6571)
128 µg/mL: MIC ([3]; S. epidemisis NCTC 11047) | MIC [6] | MIC ([9]; E. faecalis EBH1) | MIC ([9]; E. faecalis Isolate 1) | MIC ([9]; E. faecalis Isolate 2) | MIC ([9]; E. faecalis NCTC 5957)
256: MIC [1, 14] | MIC [1, 19]
128: MIC [1, 15] | MIC [1, 16] | MIC [1, 17] | MIC [1, 18]

CN(C)CCCOc1ccc(C=NN=C(N)c2ccc3ccccc3n2)cc1 [QNds]
32 to 128 µg/mL: MRSA MIC range [1, 20]
256 µg/mL: MIC ([3]; S. epidemisis Isolate 1) | MIC ([3]; S. epidemisis NCTC 11047) | MIC [7] | MIC [8]
64: MIC [1, 14] | MIC [1, 15] | MIC [1, 16] | MIC [1, 17] | MIC [1, 18] | MIC ([1]; MRSA Isolate 6, upper value of MIC reading, in µg/mL) | MIC ([1]; MRSA Isolate 7, upper value of MIC reading, in µg/mL) | MIC ([1]; MRSA Isolate 8, upper value of MIC reading, in µg/mL) | MIC ([1]; MRSA Isolate 9, upper value of MIC reading, in µg/mL) | MIC [1, 19]
128 µg/mL: MIC ([10]; E. faecium ACTCC 10541) | MIC ([4]; S. aureus Cowan 1) | MIC ([4]; S. aureus NCTC 6571) | MIC ([4]; S. aureus NCTC 10788) | MIC ([9]; E. faecalis EBH1) | MIC ([9]; E. faecalis Isolate 1) | MIC ([9]; E. faecalis Isolate 2) | MIC ([9]; E. faecalis Isolate 3) | MIC ([9]; E. faecalis Isolate 4)
64 µg/mL: MIC ([10]; E. faecium NCTC 7171) | MIC ([9]; E. faecalis Isolate 5) | MIC ([9]; E. faecalis NCTC 5957)

NC(=NN=Cc1cc(O)c(O)cc1O)c1ccc2ccccc2n1 [QNcc]
256 µg/mL: MIC ([4]; S. aureus Cowan 1) | MIC ([4]; S. aureus NCTC 6571) | MIC ([4]; S. aureus NCTC 10788) | MIC [11] | MIC ([9]; E. faecalis Isolate 2) | MIC ([9]; E. faecalis Isolate 3)
256: MIC [1, 14]

NC(=NN=Cc1c(O)ccc2ccccc12)c1ccncc1 [Compound 4PYdb]
256 µg/mL: MIC ([9]; E. faecalis Isolate 2) | MIC ([9]; E. faecalis Isolate 3)
128 µg/mL: MIC ([3]; S. epidemisis Isolate 1) | MIC ([3]; S. epidemisis NCTC 11047) | MIC ([4]; S. aureus Cowan 1) | MIC [7] | MIC [8]
256: MIC [1, 16] | MIC [1, 17]
128: MIC [1, 14]
> 256 µg/mL: MIC ([4]; S. aureus NCTC 6571)

CCC(C)(C)c1ccc(/C=N/N=C(\N)c2cccnc2)cc1 [Compound 3PYaf, N^1-[4-(1,1-dimethylpropyl)benzylidene]-pyridine-3-carboxamidrazone]
32 µg/mL: MIC [3, 33]
32 to 64 µg/mL: MIC [1, 31]
64 µg/mL: MIC [1, 21] | MIC [1, 22] | MIC [1, 23] | MIC [1, 24] | MIC [1, 25] | MIC [1, 26] | MIC [1, 27] | MIC [1, 28] | MIC [1, 29] | MIC [1, 30] | MIC ([12]; E. coli W3110R+) | MIC ([12]; E. coli W3110R−) | MIC ([10]; Enterococcus faecium, 18 h, E. faecium ACTCC 10541, read-out: MIC) | MIC [10, 34] | MIC [4, 35] | MIC [4, 36] | MIC [4, 37] | MIC ([6]; Pseudomonas aeruginosa, NCTC6749, 18 h, read-out: MIC) | MIC ([7]; Stenotrophomonas maltophilia, NCTC10257, 18 h, read-out: MIC) | MIC [8, 38] | MIC [9, 39] | MIC [9, 40] | MIC ([9]; Enterococcus faecalis, NCTC5957, 18 h, E. faecalis NCTC 5957, read-out: MIC)
128 µg/mL: MIC [3, 32] | MIC ([9]; Enterococcus faecalis, 18 h, E. faecalis EBH1, read-out: MIC) | MIC [9, 41] | MIC [9, 42]
256 µg/mL: MIC ([5]; Serratia marcescens, 18 h, read-out: MIC)

N/C(=N\N=C\c1c2ccccc2cc2ccccc12)c1ccncc1 [Compound 4PYam]
32 µg/mL: MIC [1, 21] | MIC [1, 24] | MIC [1, 25] | MIC [1, 26] | MIC [1, 29] | MIC [1, 30] | MIC [4, 35] | MIC [4, 36] | MIC [13]
128 µg/mL: MIC [3, 32]
256 µg/mL: MIC [3, 33] | MIC [10, 34] | MIC [8, 38] | MIC [9, 39] | MIC [9, 40] | MIC [9, 41] | MIC [9, 42]
64 µg/mL: MIC [1, 22] | MIC [1, 23] | MIC [1, 27] | MIC [1, 28] | MIC [4, 37]
16 to 64 µg/mL: MIC [1, 31]

NC(=NN=Cc1ccc(O)c(O)c1O)c1ccccn1 [Compound 2PYcb]
256 µg/mL: MIC ([3]; S. epidemisis Isolate 1) | MIC ([10]; E. faecium NCTC 7171) | MIC ([4]; S. aureus Cowan 1) | MIC [11]
256: MIC [1, 18]
